Assay [1] deals with phosphorylation of Cdc2 Y15 (Wee1 substrate) in A427 cells. The experiment in a line: Phosphorylated Cdc2 MSD Electrochemiluminescence Assay. The settings on record: Homo sapiens. Format: cell-based. In outline: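 Read-out: percent residual phospho-Cdc2 Y15 relative to DMSO and positive-control Wee1 inhibitor, measured by MSD electrochemiluminescence capture/detection antibody assay in cell lysates. A427 cells received duplicate 3-fold compound dilution series 20 h post-seeding, with 6 h total incubation at 37 °C.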

The next assay has as its target T1, Wee1 kinase domain (Homo sapiens, UniProt P30291).
T1 construct: Wee1 kinase domain was purchased from Carna (catalog #05-177); purchased Carna 05-177
Put plainly: Wee1 Kinase Biochemical Assay (ADP-Glo). The settings on record: 15 uM ATP. The gist of the method: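 The reaction mix held 1 nM Wee1 kinase domain, 15 uM ATP and 2 ng/mL Poly(Lys,Tyr 4:1) substrate and was left for 4 hours at 25 °C. ADP production was then measured with ADP-Glo, and percent inhibition was derived relative to DMSO and a saturating Wee1 inhibitor.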

[2] abbreviates: A-427, class symbols, read-out: A427 pCDC2 MSD IC50.
The mark [3] stands for this setting: class symbols, 1 nM Wee1 enzyme, 4 hours at 25° C.

Where two headings read alike, the source gives them in different places.

T1 sequence (P30291 299-569 limits assumed): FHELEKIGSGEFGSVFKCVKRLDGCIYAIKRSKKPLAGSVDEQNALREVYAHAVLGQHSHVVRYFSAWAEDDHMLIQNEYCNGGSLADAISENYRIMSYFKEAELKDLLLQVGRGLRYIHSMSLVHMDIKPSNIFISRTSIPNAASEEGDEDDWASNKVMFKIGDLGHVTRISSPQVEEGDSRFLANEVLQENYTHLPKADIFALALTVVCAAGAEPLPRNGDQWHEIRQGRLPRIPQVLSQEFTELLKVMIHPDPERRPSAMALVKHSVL

On to `C[C@H]1COC(=O)N1c1cccc(N2c3nc(Nc4cnn(C5CCNCC5)c4)ncc3[C@@]3(C)COC(C)(C)C[C@@H]23)n1` (single isomer, unassigned) [Example 255], for which the IC50 in assay [1] (A-427, pCDC2 MSD) is 100 to 1000 nM; at Wee1 kinase domain (Wee1 kinase domain, ADP-Glo), less than 10 nM.
With `CN1CC2(C1)CN(c1ccc(Nc3ncc4c(n3)N(c3cccc(N=S(C)(C)=O)n3)[C@@H]3CC(C)(C)OC[C@]43C)cc1)C2` [Example 219, dimethyl((6-((4bR,8aR)-4b,7,7-trimethyl-2-((4-(6-methyl-2,6-diazaspiro[3.3]heptan-2-yl)phenyl)amino)-4b,7,8,8a-tetrahydropyrano[3′,4′:4,5]pyrrolo[2,3-d]pyrimidin-9(5H)-yl)pyridin-2-yl)imino)-l6-sulfanone], the half-maximal inhibitory concentration (IC50) is 100 to 1000 nM in assay [1] (A-427, pCDC2 MSD) and less than 10 nM against Wee1 kinase domain (Wee1 kinase domain, ADP-Glo).
In the same order, the values of `Cc1cc(Nc2ncc3c(n2)N(c2cccc(N=S(C)(C)=O)n2)[C@@H]2CC(C)(C)OC[C@]32C)ccc1[C@H]1CCN(C)C1` (single isomer, unassigned) [Example 147] are less than 100 nM and less than 10 nM.
In the case of `CC[C@@]1(O)CCc2ccc(N3c4nc(Nc5ccn(C6CCN(C)CC6)c(=O)c5)ncc4[C@@]4(C)COC(C)(C)C[C@@H]34)nc21` [Example 812, 4-(((4bR,8aR)-9-((R)-7-ethyl-7-hydroxy-6,7-dihydro-5H-cyclopenta[b]pyridin-2-yl)-4b,7,7-trimethyl-4b,5,7,8,8a,9-hexahydropyrano[3′,4′:4,5]pyrrolo[2,3-d]pyrimidin-2-yl)amino)-1-(1-methylpiperidin-4-yl)pyridin-2(1H)-one], the IC50 in assay [1] (A-427, read-out: A427 pCDC2 MSD IC50) is 100 to 1000 nM; on Wee1 kinase domain (1 nM Wee1 enzyme, 4 hours at 25° C), less than 10 nM.
As for `CC1(C)C[C@H]2N(c3cccc(N=S(C)(C)=O)n3)c3nc(Nc4ccnnc4)ncc3[C@@]2(C)CO1` (single isomer, unassigned) [Example 799], the figures for the IC50 (in assay [1] (setting [2]); on Wee1 kinase domain (setting [3])) were 1000 to 10000 nM and less than 10 nM, respectively.
For `CNCc1cccc(N2c3nc(Nc4ccc(-n5nccn5)cc4)ncc3[C@@]3(C)COC(C)(C)C[C@@H]23)n1` (single isomer, unassigned) [Example 767], the IC50 in assay [1] (setting [2]) was 100 to 1000 nM; against Wee1 kinase domain (setting [3]) it was less than 10 nM.
`CN1CCN(c2ccc(Nc3ncc4c(n3)N(c3cccc(N5C(=O)CCC5(C)C)n3)[C@@H]3CC(C)(C)OC[C@]43C)cc2)CC1` (single isomer, unassigned) [Example 729]: the IC50 in assay [1] (setting [2]) was 100 to 1000 nM; at Wee1 kinase domain (setting [3]) it was less than 10 nM.
In the case of `CN1CCC[C@@H](n2cc(Nc3ncc4c(n3)N(c3cccc(N=S(C)(C)=O)n3)[C@@H]3CC(C)(C)OC[C@]43C)cn2)C1` (single isomer, unassigned) [Example 201], the IC50 is 100 to 1000 nM in assay [1] (A-427, pCDC2 MSD) and less than 10 nM on Wee1 kinase domain (Wee1 kinase domain, ADP-Glo).
Turning to `CC1(C)C[C@H]2N(c3cccc(N4CCOC4=O)n3)c3nc(Nc4ccc(O[C@@H]5CCNC5)cc4)ncc3[C@@]2(C)CO1` [Example 622, 3-(6-((4bR,8aR)-4b,7,7-trimethyl-2-((4-(((R)-pyrrolidin-3-yl)oxy)phenyl)amino)-4b,7,8,8a-tetrahydropyrano[3′,4′:4,5]pyrrolo[2,3-d]pyrimidin-9(5H)-yl)pyridin-2-yl)oxazolidin-2-one], the values for the IC50 (in assay [1] (setting [2]); against Wee1 kinase domain (setting [3])) were 100 to 1000 nM and less than 10 nM, respectively.
`Cn1ncc(Nc2ncc3c(n2)N(c2cccc(N=S(C)(C)=O)n2)[C@@H]2CC(C)(C)OC[C@]32C)c1F` (single isomer, unassigned) [Example 490]: the IC50 in assay [1] (setting [2]) is 100 to 1000 nM; against Wee1 kinase domain (setting [3]), less than 10 nM.
Take `Cn1cc([C@H]2C[C@@H]2C(=O)Nc2ncc3c(n2)N(c2cccc(N=S(C)(C)=O)n2)[C@@H]2CC(C)(C)OC[C@]32C)cn1` (single isomer, unassigned) [Example 406]: the IC50 in assay [1] (setting [2]) is 100 to 1000 nM; on Wee1 kinase domain (setting [3]) it was less than 10 nM.
Take `CN[C@@H]1CCc2ccc(N3c4nc(Nc5ccc(N6CCOCC6)cc5)ncc4[C@@]4(C)COC(C)(C)C[C@@H]34)nc21` (single isomer, unassigned) [Example 553]: the figures for the IC50 (in assay [1] (setting [2]); against Wee1 kinase domain (setting [3])) were 100 to 1000 nM and less than 10 nM, respectively.
Regarding `CC1(C)C[C@H]2N(c3cccc(P(C)(C)=O)n3)c3nc(Nc4ccn([C@H]5CCOC5)c(=O)c4)ncc3[C@@]2(C)CO1` [Example 782, 4-(((4bR,8aR)-9-(6-(dimethylphosphoryl)pyridin-2-yl)-4b,7,7-trimethyl-4b,5,7,8,8a,9-hexahydropyrano[3′,4′:4,5]pyrrolo[2,3-d]pyrimidin-2-yl)amino)-1-((S)-tetrahydrofuran-3-yl)pyridin-2(1H)-one], the IC50 in assay [1] (setting [2]) was less than 100 nM; against Wee1 kinase domain (setting [3]), less than 10 nM.
On to `CC1(C)C[C@H]2N(c3cccc(N=S(C)(C)=O)n3)c3nc(Nc4ccc(C5CNC5)c(F)c4)ncc3[C@@]2(C)CO1` (single isomer, unassigned) [Example 183], for which the IC50 in assay [1] (A-427, pCDC2 MSD) is 100 to 1000 nM; against Wee1 kinase domain (Wee1 kinase domain, ADP-Glo), less than 10 nM.
As for `CNCc1cccc(N2c3nc(Nc4ccc(N5CCS(=N)(=O)CC5)cc4)ncc3[C@@]3(C)COC(C)(C)C[C@@H]23)n1` (single isomer, unassigned) [Example 49], the IC50 is 100 to 1000 nM in assay [1] (A-427, pCDC2 MSD) and less than 10 nM at Wee1 kinase domain (Wee1 kinase domain, ADP-Glo).
Consider `CNCc1cccc(N2c3nc(Nc4ccc(N5CCC(F)(F)C5)cc4)ncc3[C@@]3(C)COC(C)(C)C[C@@H]23)n1` (single isomer, unassigned) [Example 22], for which the IC50 in assay [1] (A-427, pCDC2 MSD) is 100 to 1000 nM; against Wee1 kinase domain (Wee1 kinase domain, ADP-Glo), less than 10 nM.
As for `Cc1cc(Nc2ncc3c(n2)N(c2cccc(N4C(=O)OC[C@@H]4C)n2)[C@@H]2CC(C)(C)OC[C@]32C)ccc1N1C[C@H]2C[C@@H]1CN2C` (single isomer, unassigned) [Example 289], the IC50 is 100 to 1000 nM in assay [1] (A-427, pCDC2 MSD) and less than 10 nM against Wee1 kinase domain (Wee1 kinase domain, ADP-Glo).
Taken in the same sequence, the figures for `CNCc1cccc(N2c3nc(Nc4ccc([C@@]5(C)CCN(C)C5=O)cc4)ncc3[C@@]3(C)COC(C)(C)C[C@@H]23)n1` (single isomer, unassigned) [Example 80] were 100 to 1000 nM and less than 10 nM.
Regarding `Cn1nc(Nc2ncc3c(n2)N(c2cccc(N=S(C)(C)=O)n2)[C@@H]2CC(C)(C)OC[C@]32C)ccc1=O` (single isomer, unassigned) [Example 365], the IC50 in assay [1] (A-427, pCDC2 MSD) was 1000 to 10000 nM; at Wee1 kinase domain (Wee1 kinase domain, ADP-Glo) it was less than 10 nM.
Consider `C[C@H]1CCC(=O)N1c1cccc(N2c3nc(Nc4ccc(N5C[C@H]6C[C@@H]5CN6C)cc4)ncc3[C@@]3(C)COC(C)(C)C[C@@H]23)n1` [Example 657, (S)-5-methyl-1-(6-((4bR,8aR)-4b,7,7-trimethyl-2-((4-((1R,4R)-5-methyl-2,5-diazabicyclo[2.2.1]heptan-2-yl)phenyl)amino)-4b,7,8,8a-tetrahydropyrano[3′,4′:4,5]pyrrolo[2,3-d]pyrimidin-9(5H)-yl)pyridin-2-yl)pyrrolidin-2-one], for which the IC50 in assay [1] (setting [2]) is 100 to 1000 nM; on Wee1 kinase domain (setting [3]) it was less than 10 nM.
In the case of `CN(C)Cc1cccc(N2c3nc(Nc4ccc(N5CCOCC5)cc4)ncc3[C@@]3(C)COC(C)(C)C[C@@H]23)n1` (single isomer, unassigned) [Example 523], the IC50 is 100 to 1000 nM in assay [1] (setting [2]) and less than 10 nM at Wee1 kinase domain (setting [3]).
Turning to `CN1CCC[C@H](n2cc(Nc3ncc4c(n3)N(c3cccc(N=S(C)(C)=O)n3)[C@@H]3CC(C)(C)OC[C@]43C)cn2)C1` (single isomer, unassigned) [Example 199], the half-maximal inhibitory concentration (IC50) in assay [1] (A-427, pCDC2 MSD) was 100 to 1000 nM; against Wee1 kinase domain (Wee1 kinase domain, ADP-Glo) it was less than 10 nM.
